Reference: paper PMC11304236, “A Novel Drug Candidate for Sepsis Targeting Heparanase by Inhibiting Cytokine Storm” (Advanced Science, 2024)

Experiments:
RAW264.7 macrophages = test: Cell survival assay (CCK-8) in RAW264.7 macrophages; details: 50 to 200 µM
HPA [1] = molecular target: T1, HPA (Homo sapiens, UniProt Q9Y251); test: Homogeneous time-resolved fluorescence (HTRF) HPA inhibition in vitro; type: biochemical
T1 sequence (Q9Y251 158-543 limits assumed): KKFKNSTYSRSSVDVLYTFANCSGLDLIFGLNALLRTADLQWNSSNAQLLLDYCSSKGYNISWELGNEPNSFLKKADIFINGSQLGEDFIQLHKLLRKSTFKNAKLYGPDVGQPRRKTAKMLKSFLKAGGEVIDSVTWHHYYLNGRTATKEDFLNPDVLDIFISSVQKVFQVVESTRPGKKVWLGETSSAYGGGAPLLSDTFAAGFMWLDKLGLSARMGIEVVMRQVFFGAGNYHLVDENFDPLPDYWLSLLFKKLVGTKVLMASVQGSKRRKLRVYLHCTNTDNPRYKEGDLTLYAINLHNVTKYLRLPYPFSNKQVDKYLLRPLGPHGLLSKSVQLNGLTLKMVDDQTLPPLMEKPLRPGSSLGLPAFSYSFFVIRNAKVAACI
T1 sequence (Q9Y251 36-109 limits assumed): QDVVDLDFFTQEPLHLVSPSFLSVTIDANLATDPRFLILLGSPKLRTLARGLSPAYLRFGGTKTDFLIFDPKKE
Protocol: Active HPA was diluted with Buffer A to 120 ng mL^−1, biot‐HS‐K was diluted with Buffer B (pH 5.5) to 1.4 ng mL^−1, and SA‐d2 was diluted with Buffer C (pH 7.5) to 1 µg mL^−1, CV122 samples were diluted with Buffer A to different concentration gradients. Add 4 µL of sample solution and 3 µL of HPA solution or Buffer A to the micro‐96‐well plate. After incubating at 37 °C for 10 min, the enzyme reaction was started by adding 3 µL of biot‐HS‐K and incubating at 37 °C for 30 min. Then add 10 µL of SA‐d2 solution or Buffer C. After incubating for 15 min at room temperature, the HTRF signal was detected by a microplate reader, which was excited at 384 nm and emitted at 620 nm and 665 nm. The fluorescence intensity ratio of 665 nm/620 nm was used to calculate the average energy transfer rate (ΔF%) of each sample. The positive control system composed of biot‐HS‐K and SA‐d2 should produce the largest ΔF%, while the background fluorescence intensity of the negative control (biot‐HS‐K) should produce the smallest ΔF%.^[ [45] ^]

TNF-α, IL-6, IL-1β = test: Cytokine ELISA in serum and organs of LPS-induced septic mice; type: in vivo, mouse
Protocol: For LPS‐induced sepsis model experiments, twenty male C57BL/6J mice were randomly divided into four groups (n = 5 in each group). Mice in group 1 were injected with 0.9% NaCl, while mice in groups 2–4 were injected intraperitoneally with LPS (20 mg kg^−1). After 30 min, mice in group 3 were injected with 40 mg kg^−1 CV122 and mice in group 4 were injected with 40 mg kg^−1 Suramin. After 3 h, blood was taken and the lungs, liver, spleen, kidney heart, and brain were taken. For CLP experiments, the mice were euthanized 24 h after the establishment of the sepsis model. Blood samples were collected from the eyeballs of mice, the lungs were taken. These organs were ground at 0.1 g mL^−1 in PBS, centrifuged and the supernatant collected. Serum and organ tissue supernatants were used to detect cytokine levels using the mouse TNF‐α, IL‐6, IL‐1β ELISA MAXTM Deluxe Set.

HPA [2] = test: HPA expression in TNF-α-stimulated HUVECs (immunofluorescence, western blotting); type: cell-based, human; details: CV122 50 µM 3 h, then TNF-α 20 ng mL−1 1 h
Protocol: Lungs were harvested from LPS‐induced and CLP‐induced sepsis model mice, and frozen sections were prepared. HUVECs and RAW264.7 macrophages were incubated with CV122 for 3 h, and TNF‐α (20 ng mL^−1) and LPS (5 µg mL^−1) were used to stimulate cells for 1 h. Lung tissue, HUVECs, and RAW264.7 macrophages were fixed with 4% paraformaldehyde for 10 min before permeabilization with 0.5% Triton X‐100 for 10 min. The membrane was sealed with 4% skimmed milk powder and incubated at room temperature for 50 min. Primary antibodies were rabbit anti‐heparanase polyclonal antibodies overnight at 4 °C. The diluent of the secondary antibody FITC‐WGA‐lectin was kept at room temperature and protected from light for 1 h. Nuclei were stained with DAPI. After 120 s, images were acquired with a confocal microscope (LSM 800, Zeiss, Germany).
CV122 (50 µM) was incubated with HUVECs and RAW264.7 cells for 3 h, and LPS (5 µg mL^−1) and TNF‐α (20 ng mL^−1) were incubated for 1 h. Total protein was extracted with RIPA tissue/cell lysate solution. Lung tissues were collected and homogenized in cold RIPA buffer to obtain proteins. The BCA method was used to quantify protein. After full denaturing, proteins were separated by 10% SDS‐PAGE and transferred to PVDF membrane. […] Blots were developed with a chemiluminescent HRP substrate, and the protein bands were detected with a chemiluminescence imager (MiniChemi610).

CCHFV = type: in vivo, mouse

COC1OC(COS(=O)(=O)O)C(OC2OC(C(=O)O)C(OC3OC(COS(=O)(=O)O)C(OC4OC(C(=O)O)C(OC5OC(COS(=O)(=O)O)C(O)C(O)C5NS(=O)(=O)O)C(OS(=O)(=O)O)C4O)C(OS(=O)(=O)O)C3NS(=O)(=O)O)C(O)C2OS(=O)(=O)O)C(O)C1NS(=O)(=O)O (stereo not shown) [CV122]
effect on survival of RAW264.7 macrophages (RAW264.7 macrophages): no significant inhibitory effect
IC50 rank in HPA inhibition screening (HPA [1]; CV114-CV123 compared with fondaparinux, ****p < 0.0001): lowest IC50 values
IC50 (HPA [1]; HTRF, in vitro): 2970 nM
TNF-α, IL-6 and IL-1β levels in serum and lungs (TNF-α, IL-6, IL-1β; 40 mg kg−1, 30 min after LPS 20 mg kg−1 i.p., 3 h after LPS, vs LPS group): significantly suppressed
TNF-α, IL-6 and IL-1β in tissue extracts of brains, hearts, livers, kidneys and spleens (TNF-α, IL-6, IL-1β; 40 mg kg−1, 3 h after LPS): significantly inhibited the secretion of proinflammatory cytokines in these organs to a greater extent than Suramin
TNF-α levels in serum (TNF-α, IL-6, IL-1β; candidate screening in LPS-induced septic mouse model (Figure 1C,D)): significantly decreasing
HPA expression in HUVECs (HPA [2]): significantly inhibited HPA expression in HUVECs
spleen pathological damage (H&E) (CCHFV; 7 d after infection): spleen congestion and edema were slightly reduced
body weight (CCHFV; CCHFV-infected IFNAR−/− mice): slightly higher body weights
survival rate (CCHFV; CV122 20 mg kg−1 s.c. at 2, 3, 4 and 5 days after infection, IFNAR−/− mice, 8 day or longer observation, control 20%): 80%
